Reference: article PMC7104723 (Cell Research, 2020)
Non-standard residues stand in square brackets, D forms with d. Residues, ends and D or L forms follow the SMILES beside them. *: point of attachment. Palmitoyl = CCCCCCCCCCCCCCCC(=O)*; PEG4 = NCCOCCOCCOCCOCCC(=O)O

Key:
[1] = tested on: SARS-CoV-2 PsV; conditions: PsV, 72 h
[2] = target: SARS-CoV-2 S protein (Severe acute respiratory syndrome coronavirus 2, UniProt P0DTC2); test: cell-based; format: cell-based

SMILES	IC50 [1]	Fold more potent than EK1C1, SARS-CoV-2 S-mediated cell–cell fusion [2]	Inhibition of SARS-CoV-2 mediated cell–cell fusion at 2.5 μM [2]
CC[C@H](C)[C@H](NC(=O)[C@H](C)NC(=O)[C@H](CCC(=O)O)NC(=O)[C@H](CCC(=O)O)NC(=O)[C@H](CC(C)C)NC(=O)[C@H](CCCCN)NC(=O)[C@H](CCCCN)NC(=O)[C@H](CCSC)NC(=O)[C@H](CCC(=O)O)NC(=O)[C@H](Cc1ccc(O)cc1)NC(=O)[C@H](CCC(=O)O)NC(=O)[C@H](CC(C)C)NC(=O)[C@H](CC(=O)O)NC(=O)[C@H](CC(C)C)NC(=O)[C@H](Cc1ccccc1)NC(=O)[C@@H](NC(=O)[C@@H](NC(=O)[C@H](CC(N)=O)NC(=O)[C@@H](NC(=O)[C@H](CCC(N)=O)NC(=O)[C@H](CC(=O)O)NC(=O)[C@H](CC(C)C)NC(=O)[C@@H](N)CO)[C@@H](C)CC)C(C)C)[C@@H](C)O)C(=O)N[C@@H](CCCCN)C(=O)N[C@@H](CCCCN)C(=O)N[C@@H](CC(C)C)C(=O)N[C@@H](CCC(=O)O)C(=O)N[C@@H](CCC(=O)O)C(=O)N[C@@H](CO)C(=O)N[C@@H](Cc1ccc(O)cc1)C(=O)N[C@H](C(=O)N[C@@H](CC(=O)O)C(=O)N[C@@H](CC(C)C)C(=O)N[C@@H](CCCCN)C(=O)N[C@@H](CCC(=O)O)C(=O)N[C@@H](CC(C)C)C(=O)NCC(=O)N[C@@H](CO)C(=O)NCC(=O)NCCOCCOCCOCCOCCC(=O)N[C@@H](CSCC(=O)O[C@H]1CC[C@@]2(C)C(=CC[C@H]3[C@@H]4CC[C@H]([C@H](C)CCCC(C)C)[C@@]4(C)CC[C@@H]32)C1)C(N)=O)[C@@H](C)CC [EK1C3]	86.4 nM	4 fold	–
CC[C@H](C)[C@H](NC(=O)[C@H](C)NC(=O)[C@H](CCC(=O)O)NC(=O)[C@H](CCC(=O)O)NC(=O)[C@H](CC(C)C)NC(=O)[C@H](CCCCN)NC(=O)[C@H](CCCCN)NC(=O)[C@H](CCSC)NC(=O)[C@H](CCC(=O)O)NC(=O)[C@H](Cc1ccc(O)cc1)NC(=O)[C@H](CCC(=O)O)NC(=O)[C@H](CC(C)C)NC(=O)[C@H](CC(=O)O)NC(=O)[C@H](CC(C)C)NC(=O)[C@H](Cc1ccccc1)NC(=O)[C@@H](NC(=O)[C@@H](NC(=O)[C@H](CC(N)=O)NC(=O)[C@@H](NC(=O)[C@H](CCC(N)=O)NC(=O)[C@H](CC(=O)O)NC(=O)[C@H](CC(C)C)NC(=O)[C@@H](N)CO)[C@@H](C)CC)C(C)C)[C@@H](C)O)C(=O)N[C@@H](CCCCN)C(=O)N[C@@H](CCCCN)C(=O)N[C@@H](CC(C)C)C(=O)N[C@@H](CCC(=O)O)C(=O)N[C@@H](CCC(=O)O)C(=O)N[C@@H](CO)C(=O)N[C@@H](Cc1ccc(O)cc1)C(=O)N[C@H](C(=O)N[C@@H](CC(=O)O)C(=O)N[C@@H](CC(C)C)C(=O)N[C@@H](CCCCN)C(=O)N[C@@H](CCC(=O)O)C(=O)N[C@@H](CC(C)C)C(=O)NCC(=O)N[C@@H](CO)C(=O)NCC(=O)N[C@@H](CO)C(=O)NCC(=O)NCCOCCOCCOCCOCCOCCOCCOCCOCCC(=O)N[C@@H](CSCC(=O)O[C@H]1CC[C@@]2(C)C(=CC[C@H]3[C@@H]4CC[C@H]([C@H](C)CCCC(C)C)[C@@]4(C)CC[C@@H]32)C1)C(N)=O)[C@@H](C)CC [EK1C5]	31.3 nM	–	–
CC[C@H](C)[C@H](NC(=O)[C@H](C)NC(=O)[C@H](CCC(=O)O)NC(=O)[C@H](CCC(=O)O)NC(=O)[C@H](CC(C)C)NC(=O)[C@H](CCCCN)NC(=O)[C@H](CCCCN)NC(=O)[C@H](CCSC)NC(=O)[C@H](CCC(=O)O)NC(=O)[C@H](Cc1ccc(O)cc1)NC(=O)[C@H](CCC(=O)O)NC(=O)[C@H](CC(C)C)NC(=O)[C@H](CC(=O)O)NC(=O)[C@H](CC(C)C)NC(=O)[C@H](Cc1ccccc1)NC(=O)[C@@H](NC(=O)[C@@H](NC(=O)[C@H](CC(N)=O)NC(=O)[C@@H](NC(=O)[C@H](CCC(N)=O)NC(=O)[C@H](CC(=O)O)NC(=O)[C@H](CC(C)C)NC(=O)[C@@H](N)CO)[C@@H](C)CC)C(C)C)[C@@H](C)O)C(=O)N[C@@H](CCCCN)C(=O)N[C@@H](CCCCN)C(=O)N[C@@H](CC(C)C)C(=O)N[C@@H](CCC(=O)O)C(=O)N[C@@H](CCC(=O)O)C(=O)N[C@@H](CO)C(=O)N[C@@H](Cc1ccc(O)cc1)C(=O)N[C@H](C(=O)N[C@@H](CC(=O)O)C(=O)N[C@@H](CC(C)C)C(=O)N[C@@H](CCCCN)C(=O)N[C@@H](CCC(=O)O)C(=O)N[C@@H](CC(C)C)C(=O)NCC(=O)N[C@@H](CO)C(=O)NCC(=O)N[C@@H](CO)C(=O)NCC(=O)NCCOCCOCCOCCOCCOCCOCCOCCOCCOCCOCCOCCOCCC(=O)N[C@@H](CSCC(=O)O[C@H]1CC[C@@]2(C)C(=CC[C@H]3[C@@H]4CC[C@H]([C@H](C)CCCC(C)C)[C@@]4(C)CC[C@@H]32)C1)C(N)=O)[C@@H](C)CC [EK1C6]	77.4 nM	–	–
CC[C@H](C)[C@H](NC(=O)[C@H](C)NC(=O)[C@H](CCC(=O)O)NC(=O)[C@H](CCC(=O)O)NC(=O)[C@H](CC(C)C)NC(=O)[C@H](CCCCN)NC(=O)[C@H](CCCCN)NC(=O)[C@H](CCSC)NC(=O)[C@H](CCC(=O)O)NC(=O)[C@H](Cc1ccc(O)cc1)NC(=O)[C@H](CCC(=O)O)NC(=O)[C@H](CC(C)C)NC(=O)[C@H](CC(=O)O)NC(=O)[C@H](CC(C)C)NC(=O)[C@H](Cc1ccccc1)NC(=O)[C@@H](NC(=O)[C@@H](NC(=O)[C@H](CC(N)=O)NC(=O)[C@@H](NC(=O)[C@H](CCC(N)=O)NC(=O)[C@H](CC(=O)O)NC(=O)[C@H](CC(C)C)NC(=O)[C@@H](N)CO)[C@@H](C)CC)C(C)C)[C@@H](C)O)C(=O)N[C@@H](CCCCN)C(=O)N[C@@H](CCCCN)C(=O)N[C@@H](CC(C)C)C(=O)N[C@@H](CCC(=O)O)C(=O)N[C@@H](CCC(=O)O)C(=O)N[C@@H](CO)C(=O)N[C@@H](Cc1ccc(O)cc1)C(=O)N[C@H](C(=O)N[C@@H](CC(=O)O)C(=O)N[C@@H](CC(C)C)C(=O)N[C@@H](CCCCN)C(=O)N[C@@H](CCC(=O)O)C(=O)N[C@@H](CC(C)C)C(=O)NCC(=O)N[C@@H](CO)C(=O)NCC(=O)N[C@@H](CO)C(=O)NCC(=O)NCCOCCOCCOCCOCCOCCOCCOCCOCCOCCOCCOCCOCCOCCOCCOCCOCCOCCOCCOCCOCCOCCOCCOCCOCCC(=O)N[C@@H](CSCC(=O)O[C@H]1CC[C@@]2(C)C(=CC[C@H]3[C@@H]4CC[C@H]([C@H](C)CCCC(C)C)[C@@]4(C)CC[C@@H]32)C1)C(N)=O)[C@@H](C)CC [EK1C7]	84.4 nM	–	–
CCCCCCCCCCCCCCCC(=O)SC[C@H](NC(=O)CCOCCOCCOCCOCCNC(=O)[C@H](CC(C)C)NC(=O)[C@H](CCC(=O)O)NC(=O)[C@H](CCCCN)NC(=O)[C@H](CC(C)C)NC(=O)[C@H](CC(=O)O)NC(=O)[C@@H](NC(=O)[C@H](Cc1ccc(O)cc1)NC(=O)[C@H](CO)NC(=O)[C@H](CCC(=O)O)NC(=O)[C@H](CCC(=O)O)NC(=O)[C@H](CC(C)C)NC(=O)[C@H](CCCCN)NC(=O)[C@H](CCCCN)NC(=O)[C@@H](NC(=O)[C@H](C)NC(=O)[C@H](CCC(=O)O)NC(=O)[C@H](CCC(=O)O)NC(=O)[C@H](CC(C)C)NC(=O)[C@H](CCCCN)NC(=O)[C@H](CCCCN)NC(=O)[C@H](CCSC)NC(=O)[C@H](CCC(=O)O)NC(=O)[C@H](Cc1ccc(O)cc1)NC(=O)[C@H](CCC(=O)O)NC(=O)[C@H](CC(C)C)NC(=O)[C@H](CC(=O)O)NC(=O)[C@H](CC(C)C)NC(=O)[C@H](Cc1ccccc1)NC(=O)[C@@H](NC(=O)[C@@H](NC(=O)[C@H](CC(N)=O)NC(=O)[C@@H](NC(=O)[C@H](CCC(N)=O)NC(=O)[C@H](CC(=O)O)NC(=O)[C@H](CC(C)C)NC(=O)[C@@H](N)CO)[C@@H](C)CC)C(C)C)[C@@H](C)O)[C@@H](C)CC)[C@@H](C)CC)C(N)=O [EK1P] (H-SLDQINVTFLDLEYEMKKLEEAIKKLEESYIDLKEL[PEG4]C(Palmitoyl)-NH2)	–	–	completely inhibit
